Results on 26 compounds are retold here after patent publication US10174007B2, “Substituted 3-azabicyclo[3.1.0]hexanes as ketohexokinase inhibitors” (Pfizer Inc., priority 2015, dated 2019).

The target of one assay is KHK-C (Homo sapiens (Human), UniProt P50053). Description: Assay A: coupled-enzyme KHK absorbance assay, 10 nM KHK-C.
Sequence of KHK-C (P50053 whole entry): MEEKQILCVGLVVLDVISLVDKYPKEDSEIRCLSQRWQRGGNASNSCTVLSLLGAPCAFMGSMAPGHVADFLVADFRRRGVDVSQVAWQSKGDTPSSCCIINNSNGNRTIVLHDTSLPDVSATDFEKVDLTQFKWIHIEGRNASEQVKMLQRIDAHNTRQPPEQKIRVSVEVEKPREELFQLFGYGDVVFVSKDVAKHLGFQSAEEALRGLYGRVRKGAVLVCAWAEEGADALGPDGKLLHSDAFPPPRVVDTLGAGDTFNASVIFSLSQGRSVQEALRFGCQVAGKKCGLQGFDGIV
Settings: not given
Regarding `COC(=O)C[C@@H]1[C@H]2CN(c3cc(C(F)(F)F)nc(N4CC[C@@H]4C)n3)C[C@@H]12` [Example 3, Methyl [(1R,5S,6R)-3-{2-[(2S)-2-methylazetidin-1-yl]-6-(trifluoromethyl)pyrimidin-4-yl}-3-azabicyclo[3.1.0]hex-6-yl]acetate], the 50% inhibitory concentration (IC50) (in general, the midpoint of a concentration-inhibition curve) came out at 3510 nM.
Same read-out and setting: under `C[C@@H]1N(c2nc(N3C[C@@H]4[C@H](C3)[C@H]4CS(C)(=O)=O)cc(C(F)(F)F)n2)C[C@@]1(C)O` [Example 9, (2S,3R)-2,3-dimethyl-1-[4-{(1R,5S,6s)-6-[(methylsulfonyl)methyl]-3-azabicyclo[3.1.0]hex-3-yl}-6-(trifluoromethyl)pyrimidin-2-yl]azetidin-3-ol] stands 14400 nM.

Staying with this assay, now noted: read-out: IC50 (nM) Assay A 10 nM KHK-C; 10 nM KHK-C, 0.8 mM fructose, 0.2 mM ATP; avg of (#) runs.
Consider `O=C(O)C[C@@H]1[C@H]2CN(c3cc(C(F)(F)F)nc(C4CCC4)n3)C[C@@H]12` [Example 6, {(1R,5S,6s)-3-[2-cyclobutyl-6-(trifluoromethyl)pyrimidin-4-yl]-3-azabicyclo[3.1.0]hex-6-yl}acetic acid], for which the IC50 worked out at 170 nM.
In the case of `C[C@H]1[C@H](O)CN1c1nc(N2C[C@@H]3[C@@H](CC(=O)O)[C@@H]3C2)c(C2CC2)c(C(F)(F)F)n1` [Example 7, [(1R,5S,6R)-3-{5-cyclopropyl-2-[(2S,3R)-3-hydroxy-2-methylazetidin-1-yl]-6-(trifluoromethyl)pyrimidin-4-yl}-3-azabicyclo[3.1.0]hex-6-yl]acetic acid], the half-maximal inhibitory concentration (IC50) amounted to 111 nM.
On the same count and under the same terms, under `CCc1c(N2C[C@@H]3[C@@H](CC(=O)O)[C@@H]3C2)nc(N2C[C@@H](O)[C@@H]2C)nc1C(F)(F)F` [Example 8, [(1R,5S,6R)-3-{5-ethyl-2-[(2S,3R)-3-hydroxy-2-methylazetidin-1-yl]-6-(trifluoromethyl)pyrimidin-4-yl}-3-azabicyclo[3.1.0]hex-6-yl]acetic acid] stands 53.8 nM; under `C[C@H]1CCN1c1nc(N2C[C@@H]3[C@@H](CC(=O)NS(C)(=O)=O)[C@@H]3C2)cc(C(F)(F)F)n1` [Example 10, 2-[(1R,5S,6R)-3-{2-[(2S)-2-methylazetidin-1-yl]-6-(trifluoromethyl)pyrimidin-4-yl}-3-azabicyclo[3.1.0]hex-6-yl]-N-(methylsulfonyl)acetamide], 682 nM; under `C[C@H]1CCN1c1nc(N2C[C@@H]3[C@@H](Cc4nnn[nH]4)[C@@H]3C2)cc(C(F)(F)F)n1` [Example 11, (1R,5S,6R)-3-{2-[(2S)-2-methylazetidin-1-yl]-6-(trifluoromethyl)pyrimidin-4-yl}-6-(1H-tetrazol-5-ylmethyl)-3-azabicyclo[3.1.0]hexane], 866 nM.
On to `C[C@H]1[C@H](O)CN1c1cc(N2C[C@@H]3[C@@H](CC(=O)O)[C@@H]3C2)c(Cl)c(C(C)(F)F)n1` [Example 12, [(1R,5S,6R)-3-{3-chloro-2-(1,1-difluoroethyl)-6-[(2S,3R)-3-hydroxy-2-methylazetidin-1-yl]pyridin-4-yl}-3-azabicyclo[3.1.0]hex-6-yl]acetic acid], for which the 50% inhibitory concentration (IC50) came out at 289 nM.
The same measure, in the same setting: as for `COc1c(N2C[C@@H]3[C@@H](CC(=O)O)[C@@H]3C2)nc(N2C[C@@H](O)[C@@H]2C)nc1C(F)(F)F` [Example 13, [(1R,5S,6R)-3-{2-[(2S,3R)-3-hydroxy-2-methylazetidin-1-yl]-5-methoxy-6-(trifluoromethyl)pyrimidin-4-yl}-3-azabicyclo[3.1.0]hex-6-yl]acetic acid], the figure is 33.9 nM.

Staying with this assay, now noted: read-out: IC50 (nM) Assay A (Table 4); 10 nM KHK-C, 0.8 mM fructose, 0.2 mM ATP; avg of (#) runs.
With `C[C@H]1[C@H](O)CN1c1nc(C(F)F)cc(N2C[C@@H]3[C@@H](CC(=O)O)[C@@H]3C2)n1` [Example 14, [(1R,5S,6R)-3-{6-(difluoromethyl)-2-[(2S,3R)-3-hydroxy-2-methylazetidin-1-yl]pyrimidin-4-yl}-3-azabicyclo[3.1.0]hex-6-yl]acetic acid], the half-maximal inhibitory concentration (IC50) was found to be 152 nM.
As to `C[C@H]1[C@H](O)CN1c1nc(C(F)F)c(Cl)c(N2C[C@@H]3[C@@H](CC(=O)O)[C@@H]3C2)n1` [Example 15, [(1R,5S,6R)-3-{5-chloro-6-(difluoromethyl)-2-[(2S,3R)-3-hydroxy-2-methylazetidin-1-yl]pyrimidin-4-yl}-3-azabicyclo[3.1.0]hex-6-yl]acetic acid], the half-maximal inhibitory concentration (IC50) was found to be 19.1 nM.
On the same count and under the same terms, under `C[C@H]1[C@H](O)CN1c1nc(N2C[C@@H]3[C@@H](CC(=O)O)[C@@H]3C2)c(Cl)c(C(F)(F)F)n1` [Example 16, [(1R,5S,6R)-3-{5-chloro-2-[(2S,3R)-3-hydroxy-2-methylazetidin-1-yl]-6-(trifluoromethyl)pyrimidin-4-yl}-3-azabicyclo[3.1.0]hex-6-yl]acetic acid] stands 6.4 nM.
The same measure, in the same setting: under `C[C@H]1[C@H](O)CN1c1nc(N2C[C@@H]3[C@@H](CC(=O)O)[C@@H]3C2)cc(C(C)(F)F)n1` [Example 17, [(1R,5S,6R)-3-{6-(1,1-difluoroethyl)-2-[(2S,3R)-3-hydroxy-2-methylazetidin-1-yl]pyrimidin-4-yl}-3-azabicyclo[3.1.0]hex-6-yl]acetic acid] stands 131 nM; under `C[C@H]1[C@H](O)CN1c1nc(N2C[C@@H]3[C@@H](CC(=O)O)[C@@H]3C2)c(Cl)c(C(C)(F)F)n1` [Example 18, [(1R,5S,6R)-3-{5-chloro-6-(1,1-difluoroethyl)-2-[(2S,3R)-3-hydroxy-2-methylazetidin-1-yl]pyrimidin-4-yl}-3-azabicyclo[3.1.0]hex-6-yl]acetic acid], 16.7 nM; under `C[C@H]1CCN1c1nc(N2C[C@@H]3[C@@H](CC(=O)O)[C@@H]3C2)cc(C(F)F)c1C#N` [Example 19, [(1R,5S,6R)-3-{5-cyano-4-(difluoromethyl)-6-[(2S)-2-methylazetidin-1-yl]pyridin-2-yl}-3-azabicyclo[3.1.0]hex-6-yl]acetic acid], 7.2 nM.
Turning to `Cc1c(C(F)F)nc(N2C[C@@H](O)[C@@H]2C)nc1N1C[C@@H]2[C@@H](CC(=O)O)[C@@H]2C1` [Example 20, [(1R,5S,6R)-3-{6-(difluoromethyl)-2-[(2S,3R)-3-hydroxy-2-methylazetidin-1-yl]-5-methylpyrimidin-4-yl}-3-azabicyclo[3.1.0]hex-6-yl]acetic acid], the IC50 was found to be 33.4 nM.
Still for that read-out and setting: as for `C[C@@H]1N(c2nc(N3C[C@@H]4[C@@H](CC(=O)O)[C@@H]4C3)c(Cl)c(C(F)F)c2C#N)C[C@@]1(C)O` [Example 21, [(1R,5S,6R)-3-{3-chloro-5-cyano-4-(difluoromethyl)-6-[(2S,3R)-3-hydroxy-2,3-dimethylazetidin-1-yl]pyridin-2-yl}-3-azabicyclo[3.1.0]hex-6-yl]acetic acid], the figure is 8.7 nM; as for `C[C@@H]1N(c2nc(N3C[C@@H]4[C@@H](CC(=O)O)[C@@H]4C3)cc(C(F)(F)F)n2)C[C@@]1(C)O` [Example 22, [(1R,5S,6R)-3-{2-[(2S,3R)-3-hydroxy-2,3-dimethylazetidin-1-yl]-6-(trifluoromethyl)pyrimidin-4-yl}-3-azabicyclo[3.1.0]hex-6-yl]acetic acid], 703 nM.
Same read-out and setting: as for `C[C@H]1C[C@H](O)CN1c1nc(N2C[C@@H]3[C@@H](CC(=O)O)[C@@H]3C2)cc(C(F)(F)F)c1C#N` [Example 23, [(1R,5S,6R)-3-{5-cyano-6-[(2S,4S)-4-hydroxy-2-methylpyrrolidin-1-yl]-4-(trifluoromethyl)pyridin-2-yl}-3-azabicyclo[3.1.0]hex-6-yl]acetic acid], the figure is 11.6 nM.
Still for that read-out and setting: as for `Cc1c(C(F)F)nc(N2C[C@@](C)(O)[C@@H]2C)nc1N1C[C@@H]2[C@@H](CC(=O)O)[C@@H]2C1` [Example 25, [(1R,5S,6R)-3-{6-(difluoromethyl)-2-[(2S,3R)-3-hydroxy-2,3-dimethylazetidin-1-yl]-5-methylpyrimidin-4-yl}-3-azabicyclo[3.1.0]hex-6-yl]acetic acid], the figure is 259 nM; as for `Cc1c(N2C[C@@H]3[C@@H](CC(=O)O)[C@@H]3C2)nc(N2C[C@@](C)(O)[C@@H]2C)nc1C(F)(F)F` [Example 26, [(1R,5S,6R)-3-{2-[(2S,3R)-3-hydroxy-2,3-dimethylazetidin-1-yl]-5-methyl-6-(trifluoromethyl)pyrimidin-4-yl}-3-azabicyclo[3.1.0]hex-6-yl]acetic acid], 63.6 nM.
Regarding `C[C@H]1[C@H](O)CN1c1cc(N2C[C@@H]3[C@@H](CC(=O)O)[C@@H]3C2)cc(C(F)(F)F)n1` [Example 27, [(1R,5S,6R)-3-{2-[(2S,3R)-3-hydroxy-2-methylazetidin-1-yl]-6-(trifluoromethyl)pyridin-4-yl}-3-azabicyclo[3.1.0]hex-6-yl]acetic acid], the half-inhibitory concentration (IC50) amounted to 109 nM.
Still for that read-out and setting: under `C[C@H]1CCCN1c1nc(N2C[C@@H]3[C@@H](CC(=O)O)[C@@H]3C2)cc(C(F)(F)F)n1` [Example 28, [(1R,5S,6R)-3-{2-[(2S)-2-methylpyrrolidin-1-yl]-6-(trifluoromethyl)pyrimidin-4-yl}-3-azabicyclo[3.1.0]hex-6-yl]acetic acid] stands 120 nM; under `COc1c(C(F)F)nc(N2C[C@@H](O)[C@@H]2C)nc1N1C[C@@H]2[C@@H](CC(=O)O)[C@@H]2C1` [Example 29, [(1R,5S,6R)-3-{6-(difluoromethyl)-2-[(2S,3R)-3-hydroxy-2-methylazetidin-1-yl]-5-methoxypyrimidin-4-yl}-3-azabicyclo[3.1.0]hex-6-yl]acetic acid], 265 nM.
Take `C[C@H]1[C@H](O)CN1c1nc(N2C[C@@H]3[C@@H](CC(=O)O)[C@@H]3C2)nc(C(F)(F)F)n1` [Example 30, [(1R,5S,6R)-3-{4-[(2S,3R)-3-hydroxy-2-methylazetidin-1-yl]-6-(trifluoromethyl)-1,3,5-triazin-2-yl}-3-azabicyclo[3.1.0]hex-6-yl]acetic acid]: the IC50 was found to be 509 nM.
On to `N#Cc1c(C(F)(F)F)cc(N2C[C@@H]3[C@@H](CC(=O)O)[C@@H]3C2)nc1C1CCC1` [Example 31, {(1R,5S,6s)-3-[5-cyano-6-cyclobutyl-4-(trifluoromethyl)pyridin-2-yl]-3-azabicyclo[3.1.0]hex-6-yl}acetic acid], for which the IC50 came out at 30 nM.
